Source: patent US20230174662A1, “METHODS OF TREATING CASTRATE-RESISTANT PROSTATE CANCER” (FONDAZIONE PER L'ISTITUTO ONCOLOGICO DI RICERCA (IOR), priority 2019, published 2023)

Assays:
CDCP1 in LNCaP ADS cells = details: DHT stimulation 16 h after 2 days in FAD
Protocol: C. Left panel, Quantitative real time PCR analysis of CDCP1 mRNA levels in LNCaP grown in full media, full androgen depreviation (FAD) and stimulated with dihydrotestosterone (DHT 1 μM, 16 h) after grown for 2 days in FAD. Right panel, Western blot analysis of CDCP1, p-SRC, SRC, p-AKT, AKT, p-ERK1/2 and ERK1/2 in LNCaP grown in full media, FAD and stimulated with DHT (1 μM, 16 h) after grown for 2 days in FAD.
Tissue and cell lysates were prepared with RIPA buffer (Catalog #9806, Cell Signaling Technology) with PMSF (Phenylmethanesulfonyl fluoride; Catalog #329-98-6, Sigma). Protein concentrations of the lysates were measured by Pierce BCA Protein Assay Kit (Catalog #23225, Thermo Scientific). The lysates were then resolved by SDS-PAGE and immunoblotted with the indicated antibodies.
RNA was extracted using TRIzol® Plus RNA Purification Kit (Catalog #12183555, Life technologies). 1 μg of total RNA was used for cDNA synthesis using SuperScript® III Platinum® One-Step qRT-PCR Kit (Catalog #11732-020, Life technologies). […] All qRT-PCR data presented was normalized using GAPDH, HRPT or 18S rRNA.

LNCaP xenografts = assay: LNCaP xenograft tumour growth in SCID mice; format: in vivo, mouse; details: single agent, LNCaP s.c. in SCID mice, one week; Enzalutamide 10 mg/kg
Text: (§1) FIG. 7A. Left panel, Quantification of fold change in growth by crystal violet in LNCaP kept in full media and in LNCaP kept in full media and treated with mAb-CUB4. Right panel, Quantification of fold change in growth by crystal violet in LNCaP kept in FAD and in LNCaP kept in FAD and treated with mAb-CUB4. B. Left panel, Xenografts tumour growth (mm3) of LNCaP cell line untreated, treated with Enzalutamide, Immuno-liposome and treated with the combination of Enzalutamide and immuno-liposome. Right panel, quantification of fold change in protein levels of Cleaved Caspase 3 in LNCaP xenografts groups. C. Western blot analysis of CDCP1 expression, p-SRC and Cleaved Caspase 3 in LNCaP xenografts groups.
(§2) These findings were further validated in LNCaP-abl cells, an androgen insensitive cell line. […] Given the fact that CDCP1 expression is elevated by androgen deprivation, we postulated that targeting CDCP1 could serve as a powerful tool to treat prostate cancers treated with enzalutamide. […] Since senescence works as a double edge sword that may stimulate cancer cell growth in certain conditions, we decided to develop a novel anti-CDCP1 dual steal immunoliposome carrying doxorubicin (anti-CDCP1 ILs) to eliminate the CDCP1 overexpressing resistant cells.

[1] = system: CDCP1 in LNCaP xenografts; assay: Western blot of CDCP1 in LNCaP xenografts; format: in vivo, mouse; details: Enzalutamide alone
Text: as §1, §2

Row | Compound | CDCP1 expression and protein levels (CDCP1 in LNCaP ADS cells) | effect on tumor growth (LNCaP xenografts) | levels of CDCP1 by Western blot [1]
1 | C[C@]12CCC(=O)C[C@@H]1CC[C@@H]1[C@@H]2CC[C@]2(C)[C@@H](O)CC[C@@H]12 [DHT, 5α-Dihydrotestosterone] | reduced its expression and protein levels | – | –
2 | CNC(=O)c1ccc(N2C(=S)N(c3ccc(C#N)c(C(F)(F)F)c3)C(=O)C2(C)C)cc1F [Enzalutamide, 4-[3-[4-cyano-3-(trifluoromethyl)phenyl]-5,5-dimethyl-4-oxo-2-sulfanylideneimidazolidin-1-yl]-2-fluoro-N-methylbenzamide] | – | minor effect on tumor growth | significant increased levels of CDCP1
